“Also recorded” adds a separate entry of the source. Blank lines part the entries; values can stand above or below the molecule they belong to.
Assays:
P-selectin [1] = target: T1, P-selectin (Homo sapiens, UniProt P16109); assay: HGSOC adhesion to LP-9 mesothelial cells in co-culture device, P-selectin inhibition; format: cell-based; design: endogenous in cells; host or cells: LP-9 mesothelial cells; settings: LP-9 + 100 ng/mL MIP-1β; 10 μM KF38789 1 hour before tumor cells; 3 h adhesion
T1 sequence (P16109 42-830): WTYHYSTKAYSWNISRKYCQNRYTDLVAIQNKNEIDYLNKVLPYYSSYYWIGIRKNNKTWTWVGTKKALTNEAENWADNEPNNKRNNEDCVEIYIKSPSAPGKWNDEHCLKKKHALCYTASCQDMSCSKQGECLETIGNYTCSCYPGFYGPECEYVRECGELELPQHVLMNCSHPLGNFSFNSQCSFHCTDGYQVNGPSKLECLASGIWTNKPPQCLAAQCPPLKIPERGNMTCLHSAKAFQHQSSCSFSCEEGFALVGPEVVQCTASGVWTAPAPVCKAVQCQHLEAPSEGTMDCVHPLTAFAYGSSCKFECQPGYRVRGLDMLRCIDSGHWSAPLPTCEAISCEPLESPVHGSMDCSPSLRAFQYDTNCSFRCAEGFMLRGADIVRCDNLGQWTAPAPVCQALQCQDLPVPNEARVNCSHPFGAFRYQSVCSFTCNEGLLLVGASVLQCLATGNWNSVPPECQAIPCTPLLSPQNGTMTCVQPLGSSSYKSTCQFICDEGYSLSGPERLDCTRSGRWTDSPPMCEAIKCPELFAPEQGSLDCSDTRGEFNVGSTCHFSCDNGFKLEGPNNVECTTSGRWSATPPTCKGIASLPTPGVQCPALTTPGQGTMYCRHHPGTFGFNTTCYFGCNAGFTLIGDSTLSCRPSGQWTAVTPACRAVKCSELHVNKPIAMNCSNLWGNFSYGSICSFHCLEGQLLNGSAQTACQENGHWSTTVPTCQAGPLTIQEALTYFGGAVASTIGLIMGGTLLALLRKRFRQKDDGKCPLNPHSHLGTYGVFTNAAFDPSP
Text: (§1) In vitro model of adhesion in transcoelomic metastasis: A co-culture device was modified to construct the in vitro model of metastatic adhesion (FIG. 2). The device includes a PDMS ring that is placed in a well of a 24 well tissue culture plate and a 9×9 mm coverslip placed on top. One or more cell types can be grown within the ring, while another population can be grown on the coverslip. Inverting the coverslip on top of the ring initiates co-culture between the populations. The tissue culture plastic within the PDMS ring was coated with 1 μg of PureCol® Collagen I (Advanced Biomatrix; San Diego, Calif.) for 2 hours at room temperature. LP-9 or LP-3 were seeded into the PDMS rings to confluency (93,500 cells/cm^2 in 40 μL). Twenty-four hours after seeding, cells were washed with SFM, AAM or control coverslips were placed on top of the PDMS ring, and 40 μL of fresh SFM was added. HGSOC cells were stained with 5 μM CellTracker™ Green CMFDA Dye, dissociated using TrypLE™ Select Enzyme, and seeded into devices at 10,000 cells/10 μL after 24 hours of mesothelial cells and AAMs co-culture. […] Percent adhesion was quantified by converting cells/image to total cells/area of the co-culture device and dividing by the number of HGSOC cells added to the device.

P-selectin [2] = target: T1, P-selectin; assay: Colorectal cancer cell adhesion to MIP-1β-treated LP-9; format: cell-based; design: endogenous in cells; host or cells: LP-9 mesothelial cells; settings: LS411N, SW48; 100 ng/mL MIP-1β; KF38789 10 μM
Procedure: The experimental methods are reflective of those previously used to inhibit P-selectin, while used in an adhesion experiment with the colorectal cell lines LS411N and SW48.
The tissue culture plastic within the PDMS ring was coated with 1 μg of PureCol® Collagen I for 2 hours at room temperature. LP-9 were seeded into the PDMS rings to confluency (93,500 cells/cm^2 in 40 μL). Twenty-four hours after seeding, cells were washed with SFM, and 40 μL of fresh SFM containing either vehicle (0.1% BSA) or 100 ng/mL MIP-1β was added for 24 hours. To determine if P-selectin played a role in adhesion, LP-9 were treated with 10 μM of the small molecule P-selectin inhibitor KF38789 or DMSO (0.0005% v/v) 1 hour prior to the addition of colorectal cancer cells. The colorectal cancer cells (LS411N, SW48) were stained with 5 μM CellTracker™ Green CMFDA Dye, dissociated using TrypLE Select Enzyme, and seeded into devices at 10,000 cells/10 μL after 24 hours of mesothelial cell treatment with MIP-1β. Colorectal cancer cells were allowed to adhere for three hours, then coverslips were removed, and devices were washed twice with 2 mL PBS to remove non-adherent cells. […] Percent adhesion was quantified by converting cells/image to total cells/area of the co-culture device and dividing by the number of HGSOC cells added to the device.

MEK = assay: SELP expression in LP-9 by qRT-PCR, MEK inhibition; format: cell-based, human; settings: both vehicle and 100 ng/mL MIP-1β treated LP-9, 10 μM PD0325901, 24 hours
Text: (§2) RNA extraction and qRT-PCR: RNA was collected and isolated using the Micro-RNeasy® Extraction kit (Qiagen; Valencia, Calif.), and cDNA was synthesized using the Qiagen® First Strand Kit according to manufacturer's instructions. cDNA was mixed with Qiagen® Mastermix and assayed using the Extracellular Matrix and Adhesion Molecules RT2 Profiler PCR Array (Qiagen) in a CFX real time PCR machine (Bio-Rad; Hercules, Calif.) for a total of 40 cycles, using Qiagen's Data Analysis Center for analysis. Data is expressed as fold change, with ±2-fold set as the threshold for significance. qRT-PCR was performed using human primers for SELP, CCR1, and CCR5, and GAPDH (all Qiagen), and mouse primers for Selp (Qiagen) and Aes (IDT; Coralville, Iowa), with SsoAdvanced™ Universal SYBR® Green Supermix (Bio-Rad). Three samples were run in duplicate from each condition.
(§3) Interventions in co-culture model: To determine if P-selectin played a role in adhesion, LP-9 in co-culture devices were treated with 10 μg/mL of anti-P-selectin blocking antibody or monoclonal mouse IgG1 isotype (BioLegend; San Diego, Calif.), or 10 μM of the small molecular inhibitor KF38789 (Tocris; Minneapolis, Minn.) or DMSO (0.0005% v/v) 1 hour prior to the addition of ovarian cancer cells. […]

ovarian cancer xenograft = settings: clodronate to reduce macrophage levels; cited from earlier work
HGSOC = settings: mouse models of HGSOC; cited from earlier work
CCR5 = CCR5 (Homo sapiens, UniProt P51681); assay: SELP expression in LP-9 by qRT-PCR, CCR5 inhibition; format: cell-based; settings: 100 ng/mL MIP-1β + 10 μg/mL maraviroc, 24 hours
Text: as §2, §3

[3] = administered systemically; cited from earlier work
P-selectin [4] = target: T1, P-selectin; settings: clinical trial; cited from earlier work
P-selectin [5] = target: T1, P-selectin; settings: cited from earlier work
LP-9 mesothelial cells = assay: HGSOC adhesion to LP-9 treated with MIP-1β; format: cell-based, human; settings: 100 ng/mL MIP-1β 24 hours, all HGSOC lines
Text: as §1

Sequence of CCR5 (P51681 whole entry): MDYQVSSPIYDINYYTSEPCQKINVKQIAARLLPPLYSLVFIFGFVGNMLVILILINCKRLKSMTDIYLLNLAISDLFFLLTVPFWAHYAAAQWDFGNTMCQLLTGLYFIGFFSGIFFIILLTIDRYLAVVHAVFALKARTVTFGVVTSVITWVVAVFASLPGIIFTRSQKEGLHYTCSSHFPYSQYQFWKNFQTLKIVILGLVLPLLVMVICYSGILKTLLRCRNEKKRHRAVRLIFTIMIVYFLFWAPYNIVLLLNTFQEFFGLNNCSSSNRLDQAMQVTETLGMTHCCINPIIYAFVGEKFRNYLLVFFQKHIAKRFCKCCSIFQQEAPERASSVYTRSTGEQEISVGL

HGSOC adhesion to LP-9 increased by MIP-1β (P-selectin [1]): abrogated the increased adhesion
Colorectal cancer cell adhesion to LP-9 increased by MIP-1β (P-selectin [2]): abrogates the increased adhesion
Molecule: COc1ccc(C2CC(c3c(O)cc(C)oc3=O)=NCCS2)c(OC)c1 (stereo not drawn) [KF38789, reference compound]

Molecule: O=C(NOC[C@H](O)CO)c1ccc(F)c(F)c1Nc1ccc(I)cc1F [PD0325901]
SELP expression in LP-9 (MEK): significantly decreased SELP expression

Molecule: O=P(O)(O)C(Cl)(Cl)P(=O)(O)O [clodronate]
Metastasis (ovarian cancer xenograft): decreased metastasis

Molecule: IL-1ra: AAM-secreted ligand IL-1ra
Extent of metastasis (HGSOC): decrease the extent of metastasis

Molecule: Maraviroc
MIP-1β-stimulated SELP expression in LP-9 (CCR5): effective in inhibiting MIP-1β-stimulated expression of SELF
MIP-1β-stimulated SELP expression in LP-9 (CCR5; listed as maraviroc): negated SELP upregulation; also recorded: inhibited the upregulation of SELP

Molecule: inclacumab
Tolerability in patients [3]: well tolerated
Efficacy for saphenous vein graft failure following coronary artery bypass surgery (P-selectin [4]): surgery (94-96). While inclacumab had low efficacy for this

B1: crizanlizumab (antibody, chains of the INN, looked up, V domains shown)
VH: QVQLVQSGAEVKKPGASVKVSCKVSGYTFTSYDINWVRQAPGKGLEWMGWIYPGDGSIKYNEKFKGRVTMTVDKSTDTAYMELSSLRSEDTAVYYCARRGEYGNYEGAMDYWGQGTLVTVSS
VL: DIQMTQSPSSLSASVGDRVTITCKASQSVDYDGHSYMNWYQQKPGKAPKLLIYAASNLESGVPSRFSGSGSGTDFTLTISSLQPEDFATYYCQQSDENPLTFGGGTKVEIK
notes: monoclonal antibody against P-selectin
Tolerability in patients [3]: well tolerated
Effect on P-selectin-ligand binding (P-selectin [5]): not only block ligand binding but also disrupt existing P-selectin-ligand interactions

B2: MIP-1β: recombinant chemokine MIP-1β (Peprotech; recombinant mouse MIP-1β in vivo) (protein, UniProt P13236 24-92, looked up)
C-C motif chemokine 4: APMGSDPPTACCFSYTARKLPRNFVVDYYETSSLCSQPAVVFQTKRSKQVCADPSESWVQEYVYDLELN
HGSOC adhesion to LP-9 treated with MIP-1β (LP-9 mesothelial cells): significantly increased adhesion

— patent US20220025053A1, “Methods of Inhibiting Metastasis in Cancer” (Wisconsin Alumni Research Foundation, priority 2018, published 2022)
